The nature of series [1]: log P. It is filed as physicochemical.
Setting [2] is: table of benzofuranone oximes prepared analogously to Example 2.
Where [3] appears, read: Table 1, benzofuranyl alkanoates prepared analogously to Example 3.
The mark [4] stands for this setting: stated in text after the preparation example.

In series [1] (setting [2]), `Cc1ccc2c(c1)OC/C2=N\O` [Example 12] yielded a lipophilicity (logP) of 1.79.

For `COc1ccc2c(OC(C)=O)coc2c1` [Example 8], in series [1] (setting [3]), the logP was determined as 2.65.

As for `O/N=C1\COc2cc(C(F)(F)F)ccc21` [Example 11], the melting point was 150 °C (dec.). This molecule registered a logP in series [1] (setting [2]) of 2.38.

Regarding `CC(=O)Oc1coc2cc(C)ccc12` [Example 7], the melting point lay in the range of 32 to 36 °C. Moreover, the log partition coefficient (logP) in series [1] (setting [3]) was 3.09.

`CC(=O)Oc1coc2cc(C(F)(F)F)ccc12` [Example 6] displayed a melting point of 27 °C. Also, the logP in series [1] (setting [3]) is 3.38.

For `CO/N=C1\COc2ccccc21` [Example 1, O-methyl benzofuran oxime], the log partition coefficient (logP) in series [1] (setting [4]) was 2.38.

With `COc1ccc2c(c1)OC/C2=N\O` [Example 13], the lipophilicity (logP) in series [1] (setting [2]) was 1.52.

`O/N=C1\COc2ccccc21` [Example 2]: the lipophilicity (logP) in series [1] (setting [4]) turned out to be 1.44.

The values are drawn from patent US6603025B1, “Method of production of benzofuranone oximes” (Bayer Aktiengesellschaft, priority 1999, dated 2003).
